Laboratory results: publication PMC8436214 (Journal of Medicinal Chemistry, 2021)
Entries after “also recorded” stand apart in the source; their conditions may differ.

How the values were obtained:
DOT1L = DOT1L (Homo sapiens, UniProt Q8TEK3); assay: Methyltransferase selectivity assay; format: biochemical
[1] = system: HSC-2 human oral cancer cell line; assay: MTT cell proliferation/viability assay; format: cell-based
[2] = system: T24 human bladder cancer cell line; assay: MTT cell proliferation/viability assay; format: cell-based
Human recombinant PNMT = molecular target: T1, Human recombinant PNMT (Homo sapiens, UniProt P11086); assay: PNMT selectivity assay; format: biochemical
T1 sequence (P11086 1-282): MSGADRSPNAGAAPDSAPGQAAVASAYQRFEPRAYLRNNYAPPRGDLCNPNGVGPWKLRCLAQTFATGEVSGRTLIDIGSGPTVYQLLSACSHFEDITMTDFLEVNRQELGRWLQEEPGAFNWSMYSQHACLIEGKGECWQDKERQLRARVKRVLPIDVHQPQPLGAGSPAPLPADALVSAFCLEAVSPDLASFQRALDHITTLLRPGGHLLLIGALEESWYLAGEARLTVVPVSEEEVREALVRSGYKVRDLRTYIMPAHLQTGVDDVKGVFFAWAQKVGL

[3] = system: A549 human lung cancer line; assay: MTT cell proliferation/viability assay; format: cell-based
PRMT5 = PRMT5 (Homo sapiens, UniProt O14744); assay: Methyltransferase selectivity assay; format: biochemical
SMYD2 = SMYD2 (Homo sapiens, UniProt Q9NRG4); assay: Methyltransferase selectivity assay; format: biochemical
[4] = Parallel artificial membrane permeability assay; format: in vitro ADME; conditions: PAMPA
PRMT4/CARM1 = molecular target: T2, PRMT4/CARM1 (Homo sapiens, UniProt Q86X55); assay: PRMT4/CARM1 methyltransferase inhibition assay; format: biochemical; conditions: 3.7, 11.1, 33.3, and 100 μM
T2 sequence (Q86X55 1-608): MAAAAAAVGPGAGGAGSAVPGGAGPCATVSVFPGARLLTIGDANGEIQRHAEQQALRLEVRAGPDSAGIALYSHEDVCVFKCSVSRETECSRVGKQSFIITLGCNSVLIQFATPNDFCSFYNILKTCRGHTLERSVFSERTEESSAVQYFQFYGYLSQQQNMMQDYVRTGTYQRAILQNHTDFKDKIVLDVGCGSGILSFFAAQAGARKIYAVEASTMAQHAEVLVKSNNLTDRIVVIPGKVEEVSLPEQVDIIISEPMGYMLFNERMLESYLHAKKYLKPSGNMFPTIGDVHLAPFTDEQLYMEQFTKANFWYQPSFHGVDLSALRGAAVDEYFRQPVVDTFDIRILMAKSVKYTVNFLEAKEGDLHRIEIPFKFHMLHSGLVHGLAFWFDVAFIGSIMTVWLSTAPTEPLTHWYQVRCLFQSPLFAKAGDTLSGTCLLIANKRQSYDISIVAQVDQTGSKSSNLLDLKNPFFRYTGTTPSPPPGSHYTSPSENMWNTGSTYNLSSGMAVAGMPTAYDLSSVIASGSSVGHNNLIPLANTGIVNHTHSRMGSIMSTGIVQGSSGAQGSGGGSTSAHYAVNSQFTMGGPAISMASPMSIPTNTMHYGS

[5] = lower concentrations tested (from 1 μM)

Sequence of SMYD2 (Q9NRG4 whole entry, species assumed): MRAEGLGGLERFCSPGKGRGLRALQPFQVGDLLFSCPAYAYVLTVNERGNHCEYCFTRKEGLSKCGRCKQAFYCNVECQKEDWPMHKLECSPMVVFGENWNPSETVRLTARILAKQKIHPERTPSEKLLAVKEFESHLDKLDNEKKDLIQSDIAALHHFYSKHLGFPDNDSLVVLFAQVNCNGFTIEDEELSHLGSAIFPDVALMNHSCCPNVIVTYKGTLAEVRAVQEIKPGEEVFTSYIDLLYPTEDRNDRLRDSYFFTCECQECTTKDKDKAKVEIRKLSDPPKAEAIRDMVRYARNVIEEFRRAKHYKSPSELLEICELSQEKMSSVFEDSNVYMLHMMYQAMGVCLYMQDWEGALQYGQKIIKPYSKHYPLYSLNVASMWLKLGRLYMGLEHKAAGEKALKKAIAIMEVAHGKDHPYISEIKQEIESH
Sequence of PRMT5 (O14744 whole entry, species assumed): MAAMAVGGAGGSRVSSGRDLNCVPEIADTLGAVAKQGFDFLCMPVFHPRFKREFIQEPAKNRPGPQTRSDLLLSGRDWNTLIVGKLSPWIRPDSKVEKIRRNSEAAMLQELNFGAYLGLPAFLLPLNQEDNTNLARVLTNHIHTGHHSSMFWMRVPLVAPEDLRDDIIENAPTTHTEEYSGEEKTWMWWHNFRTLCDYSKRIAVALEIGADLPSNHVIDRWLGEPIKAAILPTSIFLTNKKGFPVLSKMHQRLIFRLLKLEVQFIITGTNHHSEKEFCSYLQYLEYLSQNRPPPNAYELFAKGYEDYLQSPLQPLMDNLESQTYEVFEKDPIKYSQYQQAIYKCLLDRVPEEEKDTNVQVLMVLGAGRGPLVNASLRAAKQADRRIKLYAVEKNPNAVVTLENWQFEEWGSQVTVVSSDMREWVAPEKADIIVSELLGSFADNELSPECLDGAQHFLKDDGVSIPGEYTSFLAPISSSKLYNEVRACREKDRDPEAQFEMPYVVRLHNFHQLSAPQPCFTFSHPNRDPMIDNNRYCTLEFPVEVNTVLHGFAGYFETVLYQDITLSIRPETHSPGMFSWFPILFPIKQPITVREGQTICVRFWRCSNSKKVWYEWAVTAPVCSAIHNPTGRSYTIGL
Sequence of PRMT5 (Q9BQA1 whole entry partner, species assumed): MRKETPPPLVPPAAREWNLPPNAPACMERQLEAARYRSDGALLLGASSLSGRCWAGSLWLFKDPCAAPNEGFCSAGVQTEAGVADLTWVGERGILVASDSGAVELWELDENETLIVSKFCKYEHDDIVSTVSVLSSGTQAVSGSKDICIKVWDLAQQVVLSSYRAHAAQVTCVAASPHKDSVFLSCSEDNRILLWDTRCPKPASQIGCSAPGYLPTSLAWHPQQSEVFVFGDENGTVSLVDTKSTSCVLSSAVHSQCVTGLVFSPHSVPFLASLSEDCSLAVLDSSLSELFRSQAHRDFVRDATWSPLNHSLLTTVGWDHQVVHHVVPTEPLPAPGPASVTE
Sequence of DOT1L (Q8TEK3 whole entry, species assumed): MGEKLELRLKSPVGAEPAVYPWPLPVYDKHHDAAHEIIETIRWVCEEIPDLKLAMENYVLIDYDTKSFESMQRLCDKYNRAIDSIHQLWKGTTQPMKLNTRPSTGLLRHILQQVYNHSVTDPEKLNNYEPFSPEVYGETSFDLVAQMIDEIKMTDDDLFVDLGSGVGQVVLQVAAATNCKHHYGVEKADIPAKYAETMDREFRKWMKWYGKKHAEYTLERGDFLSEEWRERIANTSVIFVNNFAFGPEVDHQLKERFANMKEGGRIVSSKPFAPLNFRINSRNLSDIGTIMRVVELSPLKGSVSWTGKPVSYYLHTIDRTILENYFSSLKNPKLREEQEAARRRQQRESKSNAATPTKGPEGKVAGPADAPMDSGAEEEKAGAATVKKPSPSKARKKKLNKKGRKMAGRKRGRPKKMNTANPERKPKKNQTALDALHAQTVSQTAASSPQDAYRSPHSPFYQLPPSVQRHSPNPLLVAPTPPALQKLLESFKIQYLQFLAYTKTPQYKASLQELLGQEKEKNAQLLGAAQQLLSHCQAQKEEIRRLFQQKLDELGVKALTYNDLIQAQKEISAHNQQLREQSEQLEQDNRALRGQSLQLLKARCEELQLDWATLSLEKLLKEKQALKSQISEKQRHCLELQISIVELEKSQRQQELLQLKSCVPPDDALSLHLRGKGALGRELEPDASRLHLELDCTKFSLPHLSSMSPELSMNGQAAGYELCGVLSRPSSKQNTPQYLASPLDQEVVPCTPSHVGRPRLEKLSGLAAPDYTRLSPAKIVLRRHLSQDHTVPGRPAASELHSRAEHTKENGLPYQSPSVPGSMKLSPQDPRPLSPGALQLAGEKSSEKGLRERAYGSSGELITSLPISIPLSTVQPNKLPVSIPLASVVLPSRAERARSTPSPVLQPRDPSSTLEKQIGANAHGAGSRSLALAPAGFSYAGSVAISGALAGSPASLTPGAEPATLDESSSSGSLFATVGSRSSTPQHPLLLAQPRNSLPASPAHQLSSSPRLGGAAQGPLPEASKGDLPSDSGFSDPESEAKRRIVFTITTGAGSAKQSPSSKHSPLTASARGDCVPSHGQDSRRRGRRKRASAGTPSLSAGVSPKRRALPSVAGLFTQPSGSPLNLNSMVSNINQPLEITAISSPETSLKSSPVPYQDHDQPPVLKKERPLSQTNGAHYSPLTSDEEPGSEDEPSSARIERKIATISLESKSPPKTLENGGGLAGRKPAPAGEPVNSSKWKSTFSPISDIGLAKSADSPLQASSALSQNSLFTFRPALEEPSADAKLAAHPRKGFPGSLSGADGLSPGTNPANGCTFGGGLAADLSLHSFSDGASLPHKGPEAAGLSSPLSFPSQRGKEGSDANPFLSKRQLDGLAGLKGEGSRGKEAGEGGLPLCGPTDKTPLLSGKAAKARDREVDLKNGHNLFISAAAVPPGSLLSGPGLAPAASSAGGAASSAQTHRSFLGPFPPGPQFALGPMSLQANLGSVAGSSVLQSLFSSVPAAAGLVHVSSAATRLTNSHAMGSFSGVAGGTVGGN

N#Cc1ccc(/C=C/CN(CC[C@H](N)C(=O)O)C[C@H]2O[C@@H](n3cnc4c(N)ncnc43)[C@H](O)[C@@H]2O)cc1 [Compound 17u, (S)-2-Amino-4-((((2R,3S,4R,5R)-5-(6-amino-9H-purin-9-yl)-3,4-dihydroxytetrahydrofuran-2-yl)methyl)((E)-3-(4-cyanophenyl)allyl)amino)butanoic Acid]
DOT1L activity of the compound (in words) (DOT1L; 1 μM): no appreciable activity | inhibition at 10 µM (DOT1L; read-out: DOT1L inhibition): > 50% | effect on cell viability, HSC-2 ([1]; 100 μM, MTT, 24, 48 and 72 h): clear inhibition of the cell viability; also recorded: significant decrease in cell viability | effect on cell viability, HSC-2 [1, 5]: absent | effect on cell viability, T24 ([2]; 100 μM, MTT, 24, 48 and 72 h): clear inhibition of the cell viability; also recorded: significant decrease in cell viability | effect on cell viability, T24 [2, 5]: absent | PNMT inhibition at the concentrations tested (Human recombinant PNMT; 1 and 10 μM): less than 50% | inhibitory activity against PNMT lower than against NNMT (Human recombinant PNMT; selectivity NNMT over PNMT): more than 3000 fold | effect on cell viability, A549 ([3]; 100 μM, MTT, 24, 48 and 72 h): clear inhibition of the cell viability; also recorded: significant decrease in cell viability | effect on cell viability, A549 [3, 5]: absent | PRMT5 activity of the compound (in words) (PRMT5; 1 μM): no appreciable activity | inhibition at 10 µM (PRMT5; read-out: PRMT5 inhibition): > 50% | activity at 1 µM (SMYD2; read-out: SMYD2 Average Activity (%) 1µM): 39% | activity at 10 µM (SMYD2; read-out: SMYD2 Average Activity (%) 10µM): 19% | higher potency toward NNMT (than SMYD-2) (SMYD2; selectivity NNMT over SMYD-2): > 100 fold | cell permeability (in words) [4]: very poor cell permeability; also recorded: poor cell permeability | PRMT4/CARM1 inhibition at the concentrations tested (PRMT4/CARM1): no inhibition was observed
